# Counter-ions that a name gives are not always drawn. Like-named read-outs stand apart in the source and are kept apart here.
# Key:
# [1] = tested on: lentiviral pseudoparticles harboring the SARS-CoV-1 spike; assay: microbe, parasite or virus in culture; conditions: Severe acute respiratory syndrome coronavirus, Caco-2, read-out: anti-viral IC50 (±SEM), SARS-CoV-1 pp
# [2] = tested on: lentiviral pseudoparticles harboring the MERS-CoV spike; assay: microbe, parasite or virus in culture; conditions: Middle East respiratory syndrome-related coronavirus
smiles,measurement,setting,value
CN(C)C(=O)COC(=O)Cc1ccc(OC(=O)c2ccc(NC(=N)N)cc2)cc1 [Camostat mesylate],IC50,[1],71.1 ± 8 nM
same,IC50,"[2]; Caco-2, 48 h, read-out: IC50, MERS-CoV spike pseudoparticles",50 nM
same,IC50,"[2]; Caco-2, read-out: anti-viral IC50 (±SEM), MERS-CoV pp",49.9 ± 19 nM
